According to paper PMC7587356, “High-Throughput Screening for Inhibitors of the SARS-CoV-2 Protease Using a FRET-Biosensor” (Molecules, 2020):
Read-outs that look alike come from different tables or passages of the source.

Target: SARS-CoV-2 3CLpro (Severe acute respiratory syndrome coronavirus 2, UniProt P0DTD1)
Test: biochemical
Assay type: biochemical
Set-up: Replicate_1 / Replicate_2 / mean / mean (LOPAC_screen_w_protease): unit not given here
[1] = LOPAC1280 primary screen with protease, 5 µM compound, mean of two replicates
[2] = LOPAC1280 primary screen with protease, 5 µM compound, replicate 1
[3] = LOPAC1280 primary screen with protease, 5 µM compound, replicate 2
[4] = sheet LOPAC_screen_w_protease, LOPAC1280 at 5 µM, mean of two replicates
[5] = sheet LOPAC_screen_w_protease, LOPAC1280 at 5 µM, replicate 1
[6] = sheet LOPAC_screen_w_protease, LOPAC1280 at 5 µM, replicate 2
[7] = sheet LOPAC_screen_w_protease, primary screen with protease, 5 µM, mean of two replicates
[8] = sheet LOPAC_screen_w_protease, primary screen with protease, 5 µM, replicate 1
[9] = sheet LOPAC_screen_w_protease, primary screen with protease, 5 µM, replicate 2
[10] = sheet LOPAC_screen_w_protease, LOPAC1280 primary screen at 5 µM, with protease, mean of the two replicates
[11] = sheet LOPAC_screen_w_protease, LOPAC1280 primary screen at 5 µM, with protease, replicate 1
[12] = sheet LOPAC_screen_w_protease, LOPAC1280 primary screen at 5 µM, with protease, replicate 2
[13] = sheet LOPAC_screen_w_protease, primary screen at 5 µM, mean of two replicates
[14] = sheet LOPAC_screen_w_protease, primary screen at 5 µM, replicate 1
[15] = sheet LOPAC_screen_w_protease, primary screen at 5 µM, replicate 2
[16] = LOPAC1280 primary screen with protease, 5 µM compound, mean of the two replicates
[17] = sheet LOPAC_screen_w_protease, LOPAC1280 primary screen with protease, 5 µM compound, mean of the two replicates
[18] = sheet LOPAC_screen_w_protease, LOPAC1280 primary screen with protease, 5 µM compound, replicate 1
[19] = sheet LOPAC_screen_w_protease, LOPAC1280 primary screen with protease, 5 µM compound, replicate 2
[20] = sheet LOPAC_screen_w_protease, primary screen of LOPAC1280 at 5 µM with protease, mean of the two replicates
[21] = sheet LOPAC_screen_w_protease, primary screen of LOPAC1280 at 5 µM with protease, replicate 1
[22] = sheet LOPAC_screen_w_protease, primary screen of LOPAC1280 at 5 µM with protease, replicate 2

C=CCn1c(=O)c2c(nc(-c3ccc(S(=O)(=O)O)cc3)n2C)n(C)c1=O
mean (LOPAC_screen_w_protease) [1]: 1.718 | Replicate_1 (LOPAC_screen_w_protease) [2]: 2.434 | Replicate_2 (LOPAC_screen_w_protease) [3]: 1.002

Cl.NC1(C(=O)O)CC1
mean [4]: 1.084 | Replicate_1 [5]: 2.432 | Replicate_2 [6]: -0.2629

Clc1ccc(C(c2ccccc2Cl)C(Cl)Cl)cc1 (centres unmarked)
mean [7]: -0.2273 | Replicate_1 [8]: 0.8298 | Replicate_2 [9]: -1.2843

COc1ccccc1N1CCNCC1.Cl
mean [4]: 0.9162 | Replicate_1 [5]: 1.248 | Replicate_2 [6]: 0.5839

Cl.Cl.Clc1cccc(N2CCNCC2)c1
mean [10]: 0.4258 | Replicate_1 [11]: 0.3435 | Replicate_2 [12]: 0.5081

COc1ccc2c(c1)c(CC(=O)O)c(C)n2Cc1ccc(Cl)cc1
mean [7]: 0.3525 | Replicate_1 [8]: -0.9083 | Replicate_2 [9]: 1.613

CC1CNCCN1S(=O)(=O)c1cccc2cnccc12.Cl.Cl (centres unmarked)
mean (LOPAC screen with protease) [13]: 12.1111 | Replicate_1 (LOPAC screen with protease) [14]: 12.4365 | Replicate_2 (LOPAC screen with protease) [15]: 11.7856

Cl.N=C(N)NC(=N)Nc1cccc(Cl)c1
mean (LOPAC_screen_w_protease) [16]: 1.751 | Replicate_1 (LOPAC_screen_w_protease) [2]: 2.329 | Replicate_2 (LOPAC_screen_w_protease) [3]: 1.173

C[N+]1(C)CCN(c2ccccc2)CC1.[I-]
mean (LOPAC screen with protease) [13]: 7.007 | Replicate_1 (LOPAC screen with protease) [14]: 5.351 | Replicate_2 (LOPAC screen with protease) [15]: 8.6627

CCCc1c(-c2ccc(O)cc2)nn(-c2ccc(O)cc2)c1-c1ccc(O)cc1
mean [4]: 1.246 | Replicate_1 [5]: 3.0422 | Replicate_2 [6]: -0.5503

Cl.NCC(O)C1CCCCCCC1 (centres unmarked)
mean [4]: 1.1388 | Replicate_1 [5]: 2.0547 | Replicate_2 [6]: 0.2229

CSc1nc(N)c2ncn([C@@H]3O[C@H](COP(=O)(O)OP(=O)(O)O)[C@@H](O)[C@H]3O)c2n1.[Na].[Na].[Na]
mean [17]: 4.674 | Replicate_1 [18]: 4.609 | Replicate_2 [19]: 4.739

Br.Br.N=C(N)SCCN
mean (LOPAC_screen_w_protease) [16]: 2.032 | Replicate_1 (LOPAC_screen_w_protease) [2]: 2.956 | Replicate_2 (LOPAC_screen_w_protease) [3]: 1.108

C[N+](C)(C)CCC(=O)c1cccc2ccccc12.[I-]
mean (LOPAC screen with protease) [13]: 102.503 | Replicate_1 (LOPAC screen with protease) [14]: 102.129 | Replicate_2 (LOPAC screen with protease) [15]: 102.878

O=[N+]([O-])c1ccc(O[C@@H]2O[C@H](CO)[C@@H](O)[C@H](O)[C@H]2F)c([N+](=O)[O-])c1
mean [10]: 0.5921 | Replicate_1 [11]: 1.883 | Replicate_2 [12]: -0.6983

NC(=O)COc1c(F)cc(SCCNS(=O)(=O)c2ccccc2)cc1F
mean (sheet LOPAC_screen_w_protease, LOPAC1280 primary screen at 5 µM, with protease, mean of two replicates): -1.413 | Replicate_1 [11]: -1.082 | Replicate_2 [12]: -1.744

Cc1nnc2ccc(-c3cccc(C(F)(F)F)c3)nn12
mean [17]: 4.5531 | Replicate_1 [18]: 2.841 | Replicate_2 [19]: 6.265

CN1C2CCC1CC(OC(=O)c1c[nH]c3ccccc13)C2.Cl (centres unmarked)
mean [10]: 0.5358 | Replicate_1 [11]: 1.053 | Replicate_2 [12]: 0.01899

C[N+]1(C)C2CCC1CC(OC(=O)c1c[nH]c3ccccc13)C2.[I-] (centres unmarked)
mean [20]: 3.717 | Replicate_1 [21]: 3.9921 | Replicate_2 [22]: 3.441

C[C@]12CC[C@@H](O)C[C@@H]1CC[C@@H]1[C@@H]2CC[C@]2(C)[C@@H](C(=O)CO)CC[C@@H]12
mean [17]: 5.219 | Replicate_1 [18]: 2.641 | Replicate_2 [19]: 7.796

Cl.NCCc1ccc(S(=O)(=O)F)cc1
mean [10]: 0.6027 | Replicate_1 [11]: 1.03 | Replicate_2 [12]: 0.1751

CN1C2CCC1CC(OC(c1ccccc1)c1ccc(Cl)cc1)C2.Cl (centres unmarked)
Replicate_1 (LOPAC_screen_w_protease): 2.149 | Replicate_2 (LOPAC_screen_w_protease): 0.9226 | mean (LOPAC_screen_w_protease): 1.536

O=C(O)c1cc([N+](=O)[O-])ccc1NCCCc1ccccc1
Replicate_1 (LOPAC screen with protease): 5.784 | Replicate_2 (LOPAC screen with protease): 7.243 | mean (LOPAC screen with protease): 6.5136

COc1ccc2[nH]c3c(c2c1)CCNC3
mean [10]: 0.4216 | Replicate_1 [11]: 0.4542 | Replicate_2 [12]: 0.3889

Oc1cc(-c2ccccc2)nc2nc(Cl)ccc12
mean (LOPAC_screen_w_protease) [16]: 1.995 | Replicate_1 (LOPAC_screen_w_protease) [2]: 0.8933 | Replicate_2 (LOPAC_screen_w_protease) [3]: 3.097

Nc1ncnc2c1c(-c1ccc(Oc3ccccc3)cc1)cn2C1CCCC1
mean [10]: 0.6123 | Replicate_1 [11]: 0.3054 | Replicate_2 [12]: 0.9192

COCc1nc2c([nH]1)c(=O)n(C)c(=O)n2CC(C)C
mean [17]: 5.36 | Replicate_1 [18]: 6.304 | Replicate_2 [19]: 4.4152

Cl.Nc1c2c(nc3ccccc13)CCCC2
Replicate_1: 1.645 | Replicate_2: 0.8036 | mean: 1.2241

CC1CCCC=CC2CC(O)CC2C(O)C=CC(=O)O1 (centres unmarked)
mean (LOPAC_screen_w_protease) [1]: 1.348 | Replicate_1 (LOPAC_screen_w_protease) [2]: 0.7493 | Replicate_2 (LOPAC_screen_w_protease) [3]: 1.9466

Br.COc1ccc2c(c1)[C@]13CCCC[C@@H]1[C@H](C2)N(C)CC3.O
mean (LOPAC_screen_w_protease) [16]: 1.973 | Replicate_1 (LOPAC_screen_w_protease) [2]: 1.427

O=C(O)CN(CCOCCOCCN(CC(=O)O)CC(=O)O)CC(=O)O
Replicate_1: 4.424 | Replicate_2: 0.4872 | mean: 2.456

NC(N)=Nc1ccc2[nH]c3c(c2c1)C[C@@]1(O)[C@H]2Cc4ccc(O)c5c4[C@@]1(CCN2CC1CC1)[C@H]3O5.O=C(O)C(F)(F)F.O=C(O)C(F)(F)F
mean [17]: 5.687 | Replicate_1 [18]: 7.859 | Replicate_2 [19]: 3.515

Cl.O[Si](CCCN1CCCCC1)(c1ccc(F)cc1)C1CCCCC1 (centres unmarked)
mean [4]: 1.239 | Replicate_1 [5]: 2.5476 | Replicate_2 [6]: -0.06894

C[C@@H](N)Cc1cnc[nH]1.Cl.Cl
Replicate_1: 2.14 | Replicate_2: -0.08051 | mean: 1.03

COC(=O)[C@@H](N)Cc1ccc(O)c(O)c1.Cl
mean [20]: 3.737 | Replicate_1 [21]: 4.528 | Replicate_2 [22]: 2.946

CCc1c(C(=O)OC)ncc2[nH]c3cc(OC)c(OC)cc3c12
mean (LOPAC_screen_w_protease) [16]: 2.118 | Replicate_1 (LOPAC_screen_w_protease) [2]: 4.217 | Replicate_2 (LOPAC_screen_w_protease) [3]: 0.01945

Cl.NCCCCNS(=O)(=O)c1ccc2c(Cl)cccc2c1
mean [10]: 0.6799 | Replicate_1 [11]: 0.88 | Replicate_2 [12]: 0.4798

Cl.O=C(CCCN1CCC2(CC1)C(=O)N(CCc1ccc(N=C=S)cc1)CN2c1ccccc1)c1ccc(F)cc1
mean [17]: 5.051 | Replicate_1 [18]: 5.654 | Replicate_2 [19]: 4.448

CNCCc1c[nH]c2ccc(O)cc12.O=C(O)C(=O)O
mean [17]: 5.527 | Replicate_1 [18]: 5.7 | Replicate_2 [19]: 5.354

Cc1ccc(S(=O)(=O)N[C@@H](Cc2ccccc2)C(=O)CCl)cc1
mean (LOPAC screen with protease) [13]: 61.4515 | Replicate_1 (LOPAC screen with protease) [14]: 61.5523 | Replicate_2 (LOPAC screen with protease) [15]: 61.3507

COC(=O)[C@@H](N)CCCN=C(N)N[N+](=O)[O-].Cl
mean [20]: 3.268 | Replicate_1 [21]: 2.366 | Replicate_2 [22]: 4.171

CCCCCCN(CCCCCC)C(=O)Cc1c(-c2ccc(F)cc2)[nH]c2ccccc12
mean [17]: 4.628 | Replicate_1 [18]: 5.9351 | Replicate_2 [19]: 3.32

CCCN(CCC)CCc1c[nH]c2ccc(C(N)=O)cc12.O=C(O)/C=C\C(=O)O
mean [20]: 3.512 | Replicate_1 [21]: 3.371 | Replicate_2 [22]: 3.653

CC(COc1ccc(/C=C/c2ccccc2)cc1)[N+](C)(C)C.[I-] (centres unmarked)
mean [17]: 5.814 | Replicate_1 [18]: 7.703 | Replicate_2 [19]: 3.926

Cc1ccc(S(=O)(=O)N[C@@H](CCCCN)C(=O)CCl)cc1.Cl
mean (LOPAC screen with protease) [13]: 20.7427 | Replicate_1 (LOPAC screen with protease) [14]: 21.9131 | Replicate_2 (LOPAC screen with protease) [15]: 19.5724

CC(Cc1ccc(O)c(O)c1)C(C)Cc1ccc(O)c(O)c1 (centres unmarked)
mean (LOPAC screen with protease) [13]: 97.9088 | Replicate_1 (LOPAC screen with protease) [14]: 97.7665 | Replicate_2 (LOPAC screen with protease) [15]: 98.0511

Cl.NOCC(=O)O.NOCC(=O)O
mean [4]: 1.195 | Replicate_1 [5]: 1.0596 | Replicate_2 [6]: 1.33

Br.CCCN1CCc2cc(O)cc3c2[C@H]1Cc1ccc(O)c(O)c1-3
mean (LOPAC screen with protease) [13]: 94.9167 | Replicate_1 (LOPAC screen with protease) [14]: 94.651 | Replicate_2 (LOPAC screen with protease) [15]: 95.1824

Br.CN1CCc2cc(O)cc3c2[C@H]1Cc1ccc(O)c(O)c1-3
mean (LOPAC screen with protease) [13]: 100.809 | Replicate_1 (LOPAC screen with protease) [14]: 99.6837 | Replicate_2 (LOPAC screen with protease) [15]: 101.934

N[C@H](C(=O)O)[C@H]1C[C@@H]1C(=O)O
Replicate_1: 1.266 | Replicate_2: 1.079 | mean: 1.172

CC[C@@H]1Cc2cc(O)ccc2C2=C1c1ccc(O)cc1C[C@H]2CC
mean [20]: 3.66 | Replicate_1 [21]: 4.43 | Replicate_2 [22]: 2.89

CCCCCCC(C(C)O)n1cnc2c(N)ncnc21.Cl (centres unmarked)
mean [20]: 3.427 | Replicate_1 [21]: 4.751 | Replicate_2 [22]: 2.103
